Source: US20130280741A1, “METHOD AND SYSTEM OF DETECTING DIOXIN-LIKE COMPOUNDS” (priority 2012, published 2013)

Legend:
AHR-RL and ARNT-YFP = target: T1, AHR-RL and ARNT-YFP (Homo sapiens, UniProt P35869); assay: BRET assay in AAPA cells; type: cell-based
T1 construct: expressed in transfected cells
Experimental: (§1) Tetracycline-regulated expression cells (T-REx™ cells) (Invitrogen, Carlsbad, Calif., USA) were transfected with AHR-RL, AIP-HIS and P23-HIS by lipofectamin 2000™ transfection reagent (Invitrogen, Carlsbad, Calif., USA) according to the manufacturer's instructions. Transfected cells were cultured in DMEM growth medium (Gibco, USA) supplemented with 10% fetal bovine serum (FBS), (Gibco, USA), 5 μg/ml Blasticidin, 250 μg/ml Zeocin and 500 μg/ml G418. The optimal cell lines were then transfected with ARNT-YFP or HSP90-YFP and selected with 200 μg/ml Hygromycin to obtain a stable cell line transfected with ARNT-YFP (called as “AAPA cells”) and obtain a stable cell line transfected with HSP90-YFP (called as “AAPH cells”).
For the inducible protein expression and AHR complex formation, the AAPA cells, which were stably co-transfected with AHR-RL, AIP-HIS, P23-HIS and ARNT-YFP, were prepared following the method as described in Example 2 and then were treated with 1 μg/ml tetracycline for 48 hours. Then, the treated cells were washed by phosphate-buffered saline (PBS) twice.
For dioxin detection, different concentrations of 3-methylcholanthrene (3MC) (Boehringer Mannheim, Mannheim, Germany) were mixed with the cells and cultured in a 96-well white polystyrene plate (Corning, USA) at 37° C. for 1 hour. The BRET signals were determined by addition of coelenterazine, a substrate of Renilla Luciferase, to a final concentration of […].

AHR-RL and HSP90-YFP = target: T2, AHR-RL and HSP90-YFP (Homo sapiens, UniProt P35869); assay: BRET assay in AAPH cells; type: cell-based; details: different concentrations, 37° C., dose-dependent (FIG. 2C)
T2 construct: expressed in transfected cells
Experimental: as §1
On the other hand, the AAPH cells, which were stably co-transfected with AHR-RL, AIP-HIS, P23-HIS and HSP-90YFP, were prepared and then mixed with different concentrations of 3MC and cultured in a 96-well white polystyrene plate (Corning, USA) at 37° C.

AHR-RL = target: T3, AHR-RL (Homo sapiens, UniProt P35869); assay: Renilla luciferase signal of AHR-RL in cell-free AAPA whole cell lysate; type: biochemical; details: for detection limits / Renilla luciferase signals in the cell-free system: AAPA cell free lysate, 37° C.; for Renilla luciferase signals in the cell-free system: dose-dependent (FIGS. 4 and 5); for lowest concentration at which AHR-RL signal degradation can be detected: cell-free system
T3 construct: expressed in transfected cells; host or cells: sonicated, cleared lysate of tetracycline-induced AAPA cells (T-REx cells, Invitrogen)
Experimental: 5×10^6 AAPA cells obtained in Example 4 were cultured in a 15 cm dish containing 25 ml DMEM medium supplemented with 10% FBS and 3.5 μg/ml tetracycline for 24 hrs. The cells were harvested and re-suspended in 10 ml cold PBS. The cells were lysed by sonication on ice using sonicator (Branson, Danbury Conn., USA) at amplitude of 10% for 30 cycles of 5 sec on and 15 sec off. The cellular debris was removed by centrifugation at 1,000 g for 10 min. For detection, 90 μl cell free lysates and different concentrations of 3MC were mixed and cultured in 96 well white polystyrene plate (Corning, USA) at room temperature. Renilla luciferase signals were determined by addition of coelenterazine to a final concentration of 0.35 μM. The result for detecting TCDD was shown in FIG. 3 (y=136.97x+2251.9, R^2=0.9794).
In addition, the cell free lysates and different concentrations of 3MC and TCDD were mixed and cultured in 96 well white polystyrene plate (Costar) at 37° C., respectively.

T1 sequence (P35869 11-848): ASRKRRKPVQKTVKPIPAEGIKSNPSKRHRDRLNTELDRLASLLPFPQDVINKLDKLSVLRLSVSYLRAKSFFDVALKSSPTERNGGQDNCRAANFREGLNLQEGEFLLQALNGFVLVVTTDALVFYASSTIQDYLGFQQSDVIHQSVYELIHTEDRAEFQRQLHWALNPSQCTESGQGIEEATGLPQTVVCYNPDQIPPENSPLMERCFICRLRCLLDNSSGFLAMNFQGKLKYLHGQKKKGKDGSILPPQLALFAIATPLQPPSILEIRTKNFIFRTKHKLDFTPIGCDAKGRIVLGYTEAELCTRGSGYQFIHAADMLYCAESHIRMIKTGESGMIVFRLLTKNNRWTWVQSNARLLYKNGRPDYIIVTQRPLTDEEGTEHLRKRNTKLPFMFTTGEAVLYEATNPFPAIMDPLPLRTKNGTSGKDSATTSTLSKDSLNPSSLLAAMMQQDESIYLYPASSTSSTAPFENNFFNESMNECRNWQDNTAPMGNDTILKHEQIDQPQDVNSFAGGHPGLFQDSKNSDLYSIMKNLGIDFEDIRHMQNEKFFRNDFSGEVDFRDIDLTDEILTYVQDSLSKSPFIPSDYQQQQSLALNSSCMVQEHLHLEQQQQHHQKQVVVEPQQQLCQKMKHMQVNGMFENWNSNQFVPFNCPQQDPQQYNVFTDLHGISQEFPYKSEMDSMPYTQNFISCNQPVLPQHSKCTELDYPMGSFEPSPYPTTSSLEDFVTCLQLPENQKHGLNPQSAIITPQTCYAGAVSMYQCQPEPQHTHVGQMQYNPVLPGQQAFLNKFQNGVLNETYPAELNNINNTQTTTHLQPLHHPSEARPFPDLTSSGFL
T1 sequence (P08238 whole entry partner): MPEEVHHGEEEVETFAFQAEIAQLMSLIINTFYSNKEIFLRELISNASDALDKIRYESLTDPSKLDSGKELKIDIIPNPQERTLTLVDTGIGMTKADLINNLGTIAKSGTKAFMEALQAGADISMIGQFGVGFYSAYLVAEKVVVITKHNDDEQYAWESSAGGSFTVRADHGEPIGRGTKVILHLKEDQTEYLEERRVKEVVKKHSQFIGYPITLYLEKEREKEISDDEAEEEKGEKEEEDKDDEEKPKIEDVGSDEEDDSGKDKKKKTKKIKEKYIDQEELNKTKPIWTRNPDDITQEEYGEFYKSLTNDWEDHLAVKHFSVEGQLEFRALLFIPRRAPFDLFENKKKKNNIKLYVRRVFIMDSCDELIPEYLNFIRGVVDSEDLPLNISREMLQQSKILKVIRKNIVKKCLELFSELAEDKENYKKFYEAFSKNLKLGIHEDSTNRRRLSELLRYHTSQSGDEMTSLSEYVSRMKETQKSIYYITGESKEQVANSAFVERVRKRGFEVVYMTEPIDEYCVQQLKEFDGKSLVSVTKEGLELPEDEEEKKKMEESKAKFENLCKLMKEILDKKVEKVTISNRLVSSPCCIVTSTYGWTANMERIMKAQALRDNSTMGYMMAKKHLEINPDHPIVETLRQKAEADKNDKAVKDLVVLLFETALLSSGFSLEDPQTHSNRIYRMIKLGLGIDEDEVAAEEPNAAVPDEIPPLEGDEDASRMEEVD
T1 sequence (O00170 whole entry partner): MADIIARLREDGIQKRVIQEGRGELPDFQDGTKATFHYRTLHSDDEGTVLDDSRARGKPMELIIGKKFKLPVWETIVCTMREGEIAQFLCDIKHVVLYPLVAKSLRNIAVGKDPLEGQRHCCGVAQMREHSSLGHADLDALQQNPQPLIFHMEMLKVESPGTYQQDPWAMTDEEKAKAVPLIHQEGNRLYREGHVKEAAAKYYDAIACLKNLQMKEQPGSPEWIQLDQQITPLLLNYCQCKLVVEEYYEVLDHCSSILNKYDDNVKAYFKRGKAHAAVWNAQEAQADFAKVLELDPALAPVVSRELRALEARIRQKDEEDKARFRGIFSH
T1 sequence (Q15185 whole entry partner): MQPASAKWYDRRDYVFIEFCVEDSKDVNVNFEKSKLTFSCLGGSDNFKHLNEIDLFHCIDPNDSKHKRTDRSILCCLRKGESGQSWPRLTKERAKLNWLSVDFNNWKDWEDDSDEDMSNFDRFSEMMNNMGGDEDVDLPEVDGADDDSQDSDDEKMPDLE
T3 sequence (P35869 11-848): as the sequence (P35869 11-848) above
T3 sequence (P08238 whole entry partner): as the sequence (P08238 whole entry partner) above
T3 sequence (O00170 whole entry partner): as the sequence (O00170 whole entry partner) above
T3 sequence (Q15185 whole entry partner): as the sequence (Q15185 whole entry partner) above
T2 sequence (P35869 11-848): as the sequence (P35869 11-848) above
T2 sequence (P08238 whole entry partner): as the sequence (P08238 whole entry partner) above
T2 sequence (O00170 whole entry partner): as the sequence (O00170 whole entry partner) above
T2 sequence (Q15185 whole entry partner): as the sequence (Q15185 whole entry partner) above

Compound	BRET signals (AHR-RL and ARNT-YFP; AAPA cells, different concentrations, 37° C. for 1 hour, dose-dependent (FIG. 2B))	concentration at which BRET signal induction was first observed (AHR-RL and ARNT-YFP) [pM]	BRET signals (AHR-RL and HSP90-YFP)	detection limits (AHR-RL)	Renilla luciferase signals in the cell-free system (AHR-RL)	lowest concentration at which AHR-RL signal degradation can be detected (AHR-RL) [aM]
Cc1ccc2cc3c(ccc4ccccc43)c3c2c1CC3 [3MC, 3-methylcholanthrene]	increased	1	suppressed	10^−16 M	increased	10
Clc1cc2c(cc1Cl)Oc1cc(Cl)c(Cl)cc1O2 [TCDD, 2,3,7,8-tetrachlorodibenzo-p-dioxin]	–	1	–	10^−16 M	increased	10
